Like-named read-outs stand apart in the source and are kept apart here.
Experiments:
[1] = tested on: P. falciparum 3D7 parasites; experiment: P. falciparum growth inhibition assay, 1-cycle (72 h treatment), SYBR DNA staining (library screen at 2 μg/mL and dose-response); assay type: cell-based, Plasmodium falciparum; conditions: for activity at 2 µg/mL: Plasmodium falciparum
[2] = tested on: P. falciparum 3D7 parasites; experiment: P. falciparum growth inhibition assay, 2-cycle (120 h treatment), delayed-death screen and dose-response; assay type: cell-based, Plasmodium falciparum; conditions: for activity at 2 µg/mL: Plasmodium falciparum
[3] = tested on: T. gondii RH strain (RH-Tub-eYFP) tachyzoites; experiment: microbe, parasite or virus in culture; assay type: cell-based, Toxoplasma gondii; conditions: for percent parasite growth at 2 µg/mL: Toxoplasma gondii
[4] = T. gondii, 72 h, 2 μg/mL, values are growth (% of control)
[5] = 72 h, T. gondii, 72 h, screen at 2 μg/mL, replicate 1, read-out: Tg_72h_%Growth_Rep1
[6] = 72 h, T. gondii, 72 h, screen at 2 μg/mL, replicate 2, read-out: Tg_72h_%Growth_Rep2
[7] = P. falciparum, 72 h, parasite screen 2 μg/mL, % growth, replicate 1
[8] = P. falciparum, 72 h, parasite screen 2 μg/mL, % growth, replicate 2
[9] = P. falciparum, 120 h, parasite screen 2 μg/mL, % growth, replicate 1
[10] = P. falciparum, 120 h, parasite screen 2 μg/mL, % growth, replicate 2
[11] = T. gondii, 72 h, parasite screen 2 μg/mL, % growth, replicate 1
[12] = T. gondii, 72 h, parasite screen 2 μg/mL, % growth, replicate 2
[13] = library screen at 2 μg/mL, 72 h, % growth, replicate 1
[14] = library screen at 2 μg/mL, 72 h, % growth, replicate 2

COc1cc2c(oc(=O)c3cc(C)cc(OC)c32)c2c([C@@H]3O[C@H](C)[C@H](O)[C@@](C)(O)[C@H]3O)ccc(O)c12 [Chrysomycin B]
activity at 2 µg/mL ([1]; 3D7, 72 h, P. falciparum, 72 h, screen at 2 μg/mL, replicate 1, read-out: Pf_72h_%Growth_Rep1): 67.5%
activity at 2 µg/mL ([1]; 3D7, 72 h, P. falciparum, 72 h, screen at 2 μg/mL, replicate 2, read-out: Pf_72h_%Growth_Rep2): 64.1%
activity at 2 µg/mL ([2]; 3D7, 120 h, P. falciparum, 120 h, screen at 2 μg/mL, replicate 1, read-out: Pf_120h_%Growth_Rep1): 73%
activity at 2 µg/mL ([2]; 3D7, 120 h, P. falciparum, 120 h, screen at 2 μg/mL, replicate 2, read-out: Pf_120h_%Growth_Rep2): 73.7%
Mean ([3]; T. gondii, 72 h, 2 μg/mL, mean of both replicates, growth (% of control)): 21.06
Replicate 1 [3, 4]: 25.01
Replicate 2 [3, 4]: 17.10
percent parasite growth at 2 µg/mL [3, 5]: 25%
percent parasite growth at 2 µg/mL [3, 6]: 17.1%

COc1cc(O)c2c(c1)C=CCC(O)C(O)C(=O)C=CCC(C)OC2=O (stereo not drawn) [BIA-L1160]
Pf_72h_%Growth_Rep1 ([1]; P. falciparum 3D7, 72 h, library screen at 2 μg/mL, % growth, replicate 1): 82.21%
Pf_72h_%Growth_Rep2 ([1]; P. falciparum 3D7, 72 h, library screen at 2 μg/mL, % growth, replicate 2): 92.24%
Pf_120h_%Growth_Rep1 ([2]; P. falciparum 3D7, 120 h, library screen at 2 μg/mL, % growth, replicate 1): 96.72%
Pf_120h_%Growth_Rep2 ([2]; P. falciparum 3D7, 120 h, library screen at 2 μg/mL, % growth, replicate 2): 110.83%
Tg_72h_%Growth_Rep1 ([3]; T. gondii RH, 72 h, library screen at 2 μg/mL, % growth, replicate 1): 102.73%
Tg_72h_%Growth_Rep2 ([3]; T. gondii RH, 72 h, library screen at 2 μg/mL, % growth, replicate 2): 85.36%

CN(C)[C@@H]1C(=O)C(C(N)=O)=C(O)[C@@]2(O)C(=O)C3=C(O)c4c(O)cccc4C[C@H]3C[C@@H]12.Cl [Sancycline hydrochloride]
Pf_72h_%Growth_Rep1 [1, 7]: 1.26%
Pf_72h_%Growth_Rep2 [1, 8]: 7.80%
Pf_120h_%Growth_Rep1 [2, 9]: 6.81%
Pf_120h_%Growth_Rep2 [2, 10]: 7.98%
Tg_72h_%Growth_Rep1 [3, 11]: 58.51%
Tg_72h_%Growth_Rep2 [3, 12]: 60.28%

COC(=O)[C@]12Oc3cc(C)c(-c4c(C)cc5c(c4O)C(=O)C4=C(O)CC[C@H](O)[C@@]4(C(=O)OC)O5)c(O)c3C(=O)C1=C(O)CC[C@@H]2O [Rugulotrosin A]
activity at 2 µg/mL ([1]; 3D7, 72 h, P. falciparum, 72 h, parasite screen 2 μg/mL, % growth, replicate 1, read-out: Pf_72h_%Growth_Rep1): 69.8%
activity at 2 µg/mL ([1]; 3D7, 72 h, P. falciparum, 72 h, parasite screen 2 μg/mL, % growth, replicate 2, read-out: Pf_72h_%Growth_Rep2): 106%
activity at 2 µg/mL ([2]; 3D7, 120 h, P. falciparum, 120 h, parasite screen 2 μg/mL, % growth, replicate 1, read-out: Pf_120h_%Growth_Rep1): 69.8%
activity at 2 µg/mL ([2]; 3D7, 120 h, P. falciparum, 120 h, parasite screen 2 μg/mL, % growth, replicate 2, read-out: Pf_120h_%Growth_Rep2): 107%
percent parasite growth at 2 µg/mL ([3]; 72 h, T. gondii, 72 h, parasite screen 2 μg/mL, % growth, replicate 1, read-out: Tg_72h_%Growth_Rep1): 118%
percent parasite growth at 2 µg/mL ([3]; 72 h, T. gondii, 72 h, parasite screen 2 μg/mL, % growth, replicate 2, read-out: Tg_72h_%Growth_Rep2): 86.1%

CC[C@H]1CCC[C@H](O)[C@@H](C)C(=O)C2=C[C@@H]3[C@@H](C=C(C)[C@@H]4C[C@@H](O[C@@H]5O[C@@H](C)[C@H](OC)[C@@H](OC)[C@H]5OC)C[C@@H]34)[C@@H]2CC(=O)O1 [Spinosyn D 17-pseudoaglycone]
Pf_72h_%Growth_Rep1 [1, 7]: 18.47%
Pf_72h_%Growth_Rep2 [1, 8]: 12.37%
Pf_120h_%Growth_Rep1 [2, 9]: 8.86%
Pf_120h_%Growth_Rep2 [2, 10]: 19.25%
Tg_72h_%Growth_Rep1 [3, 11]: 111.08%
Tg_72h_%Growth_Rep2 [3, 12]: 100.61%

CC1CCCCCC(=O)c2c(O)cc(O)cc2CC(=O)O1 (stereo not drawn) [Curvularin]
activity at 2 µg/mL ([1]; 3D7, P. falciparum, 72 h, screen at 2 μg/mL, replicate 1, read-out: Pf_72h_%Growth_Rep1): 94%
activity at 2 µg/mL ([1]; 3D7, P. falciparum, 72 h, screen at 2 μg/mL, replicate 2, read-out: Pf_72h_%Growth_Rep2): 47.8%
activity at 2 µg/mL ([2]; 3D7, P. falciparum, 120 h, screen at 2 μg/mL, replicate 1, read-out: Pf_120h_%Growth_Rep1): 93.3%
activity at 2 µg/mL ([2]; 3D7, P. falciparum, 120 h, screen at 2 μg/mL, replicate 2, read-out: Pf_120h_%Growth_Rep2): 122%
percent parasite growth at 2 µg/mL [3, 5]: 143%
percent parasite growth at 2 µg/mL [3, 6]: 80.4%

CC(C)Cc1cnc(C(O)C(C)C)c(=O)n1O (stereo not drawn) [BIA-N1641]
Pf_72h_%Growth_Rep1 ([1]; P. falciparum 3D7, 72 h, parasite screen at 2 μg/mL, % growth, replicate 1): 83.86%
Pf_72h_%Growth_Rep2 ([1]; P. falciparum 3D7, 72 h, parasite screen at 2 μg/mL, % growth, replicate 2): 85.70%
Pf_120h_%Growth_Rep1 ([2]; P. falciparum 3D7, 120 h, parasite screen at 2 μg/mL, % growth, replicate 1): 89.64%
Pf_120h_%Growth_Rep2 ([2]; P. falciparum 3D7, 120 h, parasite screen at 2 μg/mL, % growth, replicate 2): 132.16%
Tg_72h_%Growth_Rep1 ([3]; T. gondii, 72 h, parasite screen at 2 μg/mL, % growth, replicate 1): 143.25%
Tg_72h_%Growth_Rep2 ([3]; T. gondii, 72 h, parasite screen at 2 μg/mL, % growth, replicate 2): 85.15%

COc1ccc2cc1Oc1cc(ccc1O)[C@H](O)[C@]13SS[C@@]4(C(=O)N1C)[C@H](O)C1=COC=C[C@H](OC2=O)[C@H]1N4C3=O [Emestrin]
Pf_72h_%Growth_Rep1 [1, 13]: 36.85%
Pf_72h_%Growth_Rep2 [1, 14]: 26.37%
Pf_120h_%Growth_Rep1 ([2]; library screen at 2 μg/mL, 120 h, % growth, replicate 1): 35.44%
Pf_120h_%Growth_Rep2 ([2]; library screen at 2 μg/mL, 120 h, % growth, replicate 2): 47.36%
Tg_72h_%Growth_Rep1 [3, 13]: 2.77%
Tg_72h_%Growth_Rep2 [3, 14]: 0.86%

O=c1c2cccn2c(=O)c2cccn12 [Pyrocoll]
Pf_72h_%Growth_Rep1 [1, 7]: 84.60%
Pf_72h_%Growth_Rep2 [1, 8]: 82.90%
Pf_120h_%Growth_Rep1 [2, 9]: 85.16%
Pf_120h_%Growth_Rep2 [2, 10]: 138.60%
Tg_72h_%Growth_Rep1 [3, 11]: 94.37%
Tg_72h_%Growth_Rep2 [3, 12]: 83.97%

CCCCCCCCCCCCCCCC(=O)C1=C(O)C(CO)OC1=O (stereo not drawn) [RK-682]
Pf_72h_%Growth_Rep1 [1, 7]: 82.69%
Pf_72h_%Growth_Rep2 [1, 8]: 35.30%
Pf_120h_%Growth_Rep1 [2, 9]: 73.75%
Pf_120h_%Growth_Rep2 [2, 10]: 72.22%
Tg_72h_%Growth_Rep1 [3, 11]: 107.18%
Tg_72h_%Growth_Rep2 [3, 12]: 84.15%

Aflatoxin G2
Pf_72h_%Growth_Rep1 [1]: 83.21%
Pf_72h_%Growth_Rep2 [1]: 86.33%
Pf_120h_%Growth_Rep1 [2]: 98.15%
Pf_120h_%Growth_Rep2 [2]: 97.03%
Tg_72h_%Growth_Rep1 [3]: 134.03%
Tg_72h_%Growth_Rep2 [3]: 98.49%

COc1cc2c(c3oc4cccc(O)c4c(=O)c13)[C@@H]1C=CO[C@@H]1O2 [Sterigmatocystin]
Pf_72h_%Growth_Rep1 [1, 7]: 4.81%
Pf_72h_%Growth_Rep2 [1, 8]: 2.16%
Pf_120h_%Growth_Rep1 [2, 9]: 5.33%
Pf_120h_%Growth_Rep2 [2, 10]: 4.61%
Tg_72h_%Growth_Rep1 [3, 11]: 117.93%
Tg_72h_%Growth_Rep2 [3, 12]: 89.47%
